Drawing on patent EP1174421A1, “3-AMIDINOBENZENESULFONAMIDE DERIVATIVES, MEDICINAL COMPOSITIONS CONTAINING THE SAME AND INT[…] THE PRODUCTION THEREOF” (Kissei Pharmaceutical Co., Ltd., priority 1999, dated 2000), this text covers IC50, Death cases and Anticoagulation effect for four compounds.

Data set [1] concerns the target T1, human activated blood coagulation factor X (Homo sapiens, UniProt P00742).
T1 construct: purchased Calbiochem Corporation
Put plainly: Measurement of inhibitory activity for activated blood coagulation factor X (S-2222 chromogenic substrate). The data set is classed as biochemical. The protocol: Five µL of dimethylsulfoxide solution of test compound, 375 µL of tris-hydrochloric acid buffer (pH 8.4) and 100 µL of 1 mM S-2222 (Daiichi Pure Chemicals) aqueous solution were mixed. Then 20 µL of 0.6 U/mL human activated blood coagulation factor X (Calbiochem Corporation) in gelatin-glycine buffer was added and the mixture was incubated for 10 minutes at 37 °C. The reaction was terminated with the addition of 100 µL of 60 % acetic acid and absorbance (405 nm) was measured.
The group without test compound was defined as control and the group without human activated blood coagulation factor X was defined as blank.

Data set [2] concerns the target T2, human thrombin (Homo sapiens, UniProt P00734).
T2 construct: human thrombin (Sigma Chemical Company); purchased Sigma Chemical Company
Put plainly: Measurement of inhibitory activity for thrombin (S-2238 chromogenic substrate). The data set is classed as biochemical. The protocol:
Five µL of dimethylsulfoxide solution of test compound, 375 µL of tris-hydrochloric acid buffer (pH 8.4) and 100 µL of 1 mM S-2238 (Daiichi Pure Chemicals) aqueous solution were mixed. Then 20 µL of 2.0 U/mL human thrombin (Sigma Chemical Company) in gelatin-glycine buffer was added and the mixture was incubated for 10 minutes at 37 °C. The reaction was terminated with the addition of 100 µL of 60 % acetic acid and absorbance (405 nm) was measured.
The group without test compound was defined as control and the group without human thrombin was defined as blank. […]

Data set [3] deals with Male Wistar rats. Nature of the data set: Acute toxicity test. The data set is classed as in vivo. The note with it: 30 mg/kg, through tail vein (intravenous), groups of 5 rats, survival judged for 24 hours. The protocol:
Male Wistar rats aged 7 weeks (SLC) were divided into several groups consisting of 5 rats. Test compound was dissolved at the concentration that became the administration volume of
2.5 mL/kg. The solution was administered through tail vein at an infusion rate of 1 mL/minute. Observations were performed at constant intervals, and survival rate was judged for 24 hours.

The test system of data set [4] is normal human plasma. Put plainly: Measurement of anticoagulation effects (plasma prothrombin time). The data set is classed as biochemical. The note with it: CT2: concentration that prolonged the clotting time (prothrombin time) of control by 2 times. The protocol:
Two µL of dimethylsulfoxide solution of test compound which was put in the process tube was incubated at 37 °C, and 50 µL of normal human plasma (George King Bio-Medical Inc.) was mixed. One minute later, 100 µL of plasma prothrombin time reagent (Neoplastin Plus® , Boehringer Mannheim) was added into the mixture. Prothrombin time was measured with ST4 (Boehringer Mannheim).
The group without test compound was defined as control. The concentration of test compound that prolonged the clotting time of control by 2 times (CT2) was obtained and this value was used as the index of anticoagulation activity.

The structures appear in SMILES notation. Counter-ions that a name gives are not always drawn. Like-named read-outs stand apart in the source and are kept apart here. Bounds are passed on as bounds.

T1 sequence (P00742 235-488 limits assumed): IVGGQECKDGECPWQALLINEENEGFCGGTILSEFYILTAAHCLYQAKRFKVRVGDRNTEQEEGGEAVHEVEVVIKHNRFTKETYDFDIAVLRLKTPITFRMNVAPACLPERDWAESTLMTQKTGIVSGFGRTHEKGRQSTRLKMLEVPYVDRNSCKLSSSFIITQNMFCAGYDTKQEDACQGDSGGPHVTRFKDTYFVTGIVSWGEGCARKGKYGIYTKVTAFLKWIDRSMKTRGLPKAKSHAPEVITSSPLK
T1 sequence (P00742 41-179 partner limits assumed): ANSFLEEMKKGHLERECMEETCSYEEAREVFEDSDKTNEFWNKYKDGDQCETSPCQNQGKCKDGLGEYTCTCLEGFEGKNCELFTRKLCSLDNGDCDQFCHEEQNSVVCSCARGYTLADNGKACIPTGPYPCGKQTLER

With `CC(C)c1ccc(CCNS(=O)(=O)c2cc(C(=N)N)ccc2O)cc1` [Compound 2, 5-Amidino-N-[2-(4-isopropylphenyl)ethyl]-2-hydroxybenzene-sulfonamide hydrochloride], the IC50 in data set [1] (IC50, pH 8.4, 10 minutes at 37 °C, absorbance 405 nm, read-out: Inhibitory activity for activated blood coagulation factor X) was found to be 0.064 µM; in data set [2] (IC50, pH 8.4, 10 minutes at 37 °C, absorbance 405 nm, read-out: Inhibitory activity for thrombin), 101 µM.

Regarding `CC(=N)N1CCC(c2ccc(CCNS(=O)(=O)c3cc(C(=N)N)ccc3O)cc2)CC1` [Compound 8, 5-Amidino-2-hydroxy-N-[2-[4-[1-(1-iminoethyl)piperidin-4-yl]phenyl]ethyl]benzenesulfonamide dihydorchloride], the results for the IC50 in data set [1] and in data set [2] were 0.087 µM and more than 100 µM, respectively. Besides, the Death cases in data set [3] was 0/5; in data set [3] (listed as 5-amidino-2-hydroxy-N-[2-[4-[1-(1-iminoethyl)piperidin-4-yl]phenyl]ethyl]benzene) it was “no death was observed”. The compound further yielded an Anticoagulation effect in data set [4] of 0.21 µM.

`CC(=N)N1CC[C@H](Oc2ccc(CCNS(=O)(=O)c3cc(C(=N)N)ccc3O)cc2)C1` [Compound 9, (S)-5-Amidino-2-hydroxy-N-[2-[4-[1-(1-iminoethyl)pyrrolidin-3-yloxylphenyl]ethyl]benzenesulfonamidedihydrochloride]: the IC50 in data set [1] is 0.088 µM; in data set [2], more than 100 µM. In addition, the Anticoagulation effect in data set [4] came to 0.18 µM.

Turning to `CC(=N)N1CCC(Oc2ccc(CCNS(=O)(=O)c3cc(C(=N)N)ccc3O)cc2)CC1` [Compound 10, 5-Amidino-2-hvdroxv-N-[2-[4-[1-(1-iminoethyl)piperidin-4-yloxy]phenyl]ethyl]benzenesulfonamide dihydrochloride], the results for the IC50 in data set [1] and in data set [2] were 0.11 µM and more than 100 µM, respectively. The compound also gave an Anticoagulation effect in data set [4] of 0.22 µM.
